According to patent publication US9695155B2, “Herbicidal substituted pyrimidinyloxy benzene compounds” (E. I. DU PONT DE NEMOURS AND COMPANY, priority 2013, dated 2017):

Key:
giant foxtail [1] = experiment: Test C postemergence; format: in vivo, Setaria faberii; settings: for Plant response rating (0 to 100), Foxtail, Giant: 16 g ai/ha, 0 is no effect, 100 is complete control; for Foxtail, Giant plant response rating: 31 g ai/ha; for Foxtail, Giant plant response rating / Plant response rating, Foxtail, Giant: scale 0 to 100 (0 no effect, 100 complete control)
Method in brief: (§1)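 Preemergence: seeds sown in a loam soil–sand blend and sprayed with test chemical in a non-phytotoxic solvent mixture containing surfactant. Postemergence: plants at 2 to 18 cm (1- to 4-leaf stage) in peat-based medium, treated with the same formulation. Greenhouse 13 to 15 days, then visual rating 0 (no effect) to 100 (complete control).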

pigweed [2] = experiment: Test A preemergence; format: in vivo, Amaranthus retroflexus; settings: for Pigweed plant response rating (0 to 100 scale): 125 g ai/ha; for Pigweed plant response rating: 500 g ai/ha, 0 to 100 scale where 0 is no effect and 100 is complete control
Method in brief: (§2)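 Compounds in non-phytotoxic solvent with surfactant applied as soil spray preemergence, or postemergence to plants 2-10 cm at one- to two-leaf stage, in loam/sand. After approximately 10 days in greenhouse, injury rated visually versus untreated controls, 0 (no effect) to 100 (complete control).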

large (Lg) crabgrass [3] = experiment: Test A preemergence; format: in vivo, Digitaria sanguinalis; settings: for Crabgrass, Large plant response rating (0 to 100 scale): 125 g ai/ha; for Crabgrass, Large plant response rating: 500 g ai/ha, 0 to 100 scale where 0 is no effect and 100 is complete control
Method in brief: as §2

wild oat = experiment: Test C postemergence; format: in vivo, Avena fatua; settings: for Plant response rating (0 to 100), Oat, Wild: 16 g ai/ha, 0 is no effect, 100 is complete control; for Oat, Wild plant response rating: 31 g ai/ha; for Oat, Wild plant response rating / Plant response rating, Oat, Wild: scale 0 to 100 (0 no effect, 100 complete control)
Method in brief: as §1

velvetleaf [4] = experiment: Test A postemergence; format: in vivo, Abutilon theophrasti; settings: 0 to 100 scale where 0 is no effect and 100 is complete control; for Velvetleaf plant response rating: 125 g ai/ha; for Plant response rating, Velvetleaf: 500 g ai/ha
Method in brief: as §2

giant foxtail [5] = experiment: Test A postemergence; format: in vivo, Setaria faberii; settings: 0 to 100 scale where 0 is no effect and 100 is complete control; for Foxtail, Giant plant response rating: 125 g ai/ha; for Plant response rating, Foxtail, Giant: 500 g ai/ha
Method in brief: as §2

velvetleaf [6] = experiment: Test A preemergence; format: in vivo, Abutilon theophrasti; settings: for Velvetleaf plant response rating (0 to 100 scale): 125 g ai/ha; for Velvetleaf plant response rating: 500 g ai/ha, 0 to 100 scale where 0 is no effect and 100 is complete control
Method in brief: as §2

giant foxtail [7] = experiment: Test A preemergence; format: in vivo, Setaria faberii; settings: for Foxtail, Giant plant response rating (0 to 100 scale): 125 g ai/ha; for Foxtail, Giant plant response rating: 500 g ai/ha, 0 to 100 scale where 0 is no effect and 100 is complete control
Method in brief: as §2

pigweed [8] = experiment: Test A postemergence; format: in vivo, Amaranthus retroflexus; settings: 0 to 100 scale where 0 is no effect and 100 is complete control; for Pigweed plant response rating: 125 g ai/ha; for Plant response rating, Pigweed: 500 g ai/ha
Method in brief: as §2

chickweed = experiment: Test C postemergence; format: in vivo, Stellaria media; settings: for Plant response rating (0 to 100), Chickweed: 16 g ai/ha, 0 is no effect, 100 is complete control; for Chickweed plant response rating: 31 g ai/ha; for Chickweed plant response rating / Plant response rating, Chickweed: scale 0 to 100 (0 no effect, 100 complete control)
Method in brief: as §1

ragweed = experiment: Test C postemergence; format: in vivo, Ambrosia elatior; settings: for Plant response rating (0 to 100), Ragweed: 16 g ai/ha, 0 is no effect, 100 is complete control; for Ragweed plant response rating: 31 g ai/ha; for Ragweed plant response rating / Plant response rating, Ragweed: scale 0 to 100 (0 no effect, 100 complete control)
Method in brief: as §1

wheat, winter = experiment: Test C postemergence; format: in vivo, Triticum aestivum; settings: for Plant response rating (0 to 100), Wheat: 16 g ai/ha, 0 is no effect, 100 is complete control; for Wheat plant response rating: 31 g ai/ha; for Wheat plant response rating / Plant response rating, Wheat: scale 0 to 100 (0 no effect, 100 complete control)
Method in brief: as §1

velvetleaf [9] = experiment: Test C postemergence; format: in vivo, Abutilon theophrasti; settings: for Plant response rating (0 to 100), Velvetleaf: 16 g ai/ha, 0 is no effect, 100 is complete control; for Velvetleaf plant response rating: 31 g ai/ha; for Velvetleaf plant response rating / Plant response rating, Velvetleaf: scale 0 to 100 (0 no effect, 100 complete control)
Method in brief: as §1

soybean = experiment: Test C postemergence; format: in vivo, Glycine max; settings: for Plant response rating (0 to 100), Soybean: 16 g ai/ha, 0 is no effect, 100 is complete control; for Soybean plant response rating: 31 g ai/ha; for Soybean plant response rating / Plant response rating, Soybean: scale 0 to 100 (0 no effect, 100 complete control)
Method in brief: as §1

large (Lg) crabgrass [10] = experiment: Test A postemergence; format: in vivo, Digitaria sanguinalis; settings: 0 to 100 scale where 0 is no effect and 100 is complete control; for Crabgrass, Large plant response rating: 125 g ai/ha; for Plant response rating, Crabgrass, Large: 500 g ai/ha
Method in brief: as §2

[11] = postemergence, visual rating, 13 to 15 days
[12] = 125 g ai/ha, postemergence, visual rating
[13] = Postemergence, 62 g ai/ha, 13 to 15 days

FC(F)(F)c1cnn(-c2c(Br)cccc2Oc2ncc(Cl)cn2)c1 [Compound 191]
Plant response rating (0 to 100), Foxtail, Giant (giant foxtail [1]; postemergence): 10
Foxtail, Giant plant response rating (giant foxtail [1]; [11]): 10
Plant response rating, Foxtail, Giant (giant foxtail [1]; [12]): 15
Plant response rating, Foxtail, Giant (giant foxtail [1]; Postemergence, 62 g ai/ha): 10
Pigweed plant response rating (0 to 100 scale) (pigweed [2]): 100
Pigweed plant response rating (pigweed [2]): 100
Crabgrass, Large plant response rating (0 to 100 scale) (large (Lg) crabgrass [3]): 100
Crabgrass, Large plant response rating (large (Lg) crabgrass [3]): 100
Plant response rating (0 to 100), Oat, Wild (wild oat; postemergence): 5
Oat, Wild plant response rating (wild oat; [11]): 5
Plant response rating, Oat, Wild (wild oat; [12]): 10
Plant response rating, Oat, Wild (wild oat; Postemergence, 62 g ai/ha): 5
Velvetleaf plant response rating (velvetleaf [4]): 90
Plant response rating, Velvetleaf (velvetleaf [4]): 100
Foxtail, Giant plant response rating (giant foxtail [5]): 50
Plant response rating, Foxtail, Giant (giant foxtail [5]): 90
Velvetleaf plant response rating (0 to 100 scale) (velvetleaf [6]): 80
Velvetleaf plant response rating (velvetleaf [6]): 90
Foxtail, Giant plant response rating (0 to 100 scale) (giant foxtail [7]): 100
Foxtail, Giant plant response rating (giant foxtail [7]): 100
Pigweed plant response rating (pigweed [8]): 100
Plant response rating, Pigweed (pigweed [8]): 100
Plant response rating (0 to 100), Chickweed (chickweed; postemergence): 10
Chickweed plant response rating (chickweed; [11]): 80
Plant response rating, Chickweed (chickweed; [12]): 98
Plant response rating, Chickweed (chickweed; Postemergence, 62 g ai/ha): 80
Plant response rating (0 to 100), Ragweed (ragweed; postemergence): 5
Ragweed plant response rating (ragweed; [11]): 20
Plant response rating, Ragweed (ragweed; [12]): 35
Plant response rating, Ragweed (ragweed; Postemergence, 62 g ai/ha): 30
Plant response rating (0 to 100), Wheat (wheat, winter; postemergence): 0
Wheat plant response rating (wheat, winter; [11]): 0
Plant response rating, Wheat (wheat, winter; [12]): 0
Plant response rating, Wheat (wheat, winter; Postemergence, 62 g ai/ha): 0
Plant response rating (0 to 100), Velvetleaf (velvetleaf [9]; postemergence): 50
Velvetleaf plant response rating (velvetleaf [9]; [11]): 65
Plant response rating, Velvetleaf (velvetleaf [9]; [12]): 65
Plant response rating, Velvetleaf (velvetleaf [9]; Postemergence, 62 g ai/ha): 75
Plant response rating (0 to 100), Soybean (soybean; postemergence): 40
Soybean plant response rating (soybean; [11]): 55
Plant response rating, Soybean (soybean; [12]): 30
Plant response rating, Soybean (soybean; Postemergence, 62 g ai/ha): 60
Crabgrass, Large plant response rating (large (Lg) crabgrass [10]): 50
Plant response rating, Crabgrass, Large (large (Lg) crabgrass [10]): 90

FC(F)c1cnn(-c2c(Cl)cccc2Oc2ncc(Cl)cn2)c1 [Compound 192]
Plant response rating (0 to 100), Foxtail, Giant (giant foxtail [1]; postemergence): 5
Foxtail, Giant plant response rating (giant foxtail [1]; [11]): 5
Plant response rating, Foxtail, Giant (giant foxtail [1]; [12]): 10
Plant response rating, Foxtail, Giant (giant foxtail [1]; [13]): 5
Pigweed plant response rating (0 to 100 scale) (pigweed [2]): 100
Pigweed plant response rating (pigweed [2]): 100
Crabgrass, Large plant response rating (0 to 100 scale) (large (Lg) crabgrass [3]): 100
Crabgrass, Large plant response rating (large (Lg) crabgrass [3]): 100
Plant response rating (0 to 100), Oat, Wild (wild oat; postemergence): 0
Oat, Wild plant response rating (wild oat; [11]): 0
Plant response rating, Oat, Wild (wild oat; [12]): 5
Plant response rating, Oat, Wild (wild oat; [13]): 5
Velvetleaf plant response rating (velvetleaf [4]): 90
Plant response rating, Velvetleaf (velvetleaf [4]): 100
Foxtail, Giant plant response rating (giant foxtail [5]): 70
Plant response rating, Foxtail, Giant (giant foxtail [5]): 90
Velvetleaf plant response rating (0 to 100 scale) (velvetleaf [6]): 90
Velvetleaf plant response rating (velvetleaf [6]): 100
Foxtail, Giant plant response rating (0 to 100 scale) (giant foxtail [7]): 100
Foxtail, Giant plant response rating (giant foxtail [7]): 100
Pigweed plant response rating (pigweed [8]): 100
Plant response rating, Pigweed (pigweed [8]): 100
Plant response rating (0 to 100), Chickweed (chickweed; postemergence): 45
Chickweed plant response rating (chickweed; [11]): 50
Plant response rating, Chickweed (chickweed; [12]): 60
Plant response rating, Chickweed (chickweed; [13]): 70
Plant response rating (0 to 100), Ragweed (ragweed; postemergence): 10
Ragweed plant response rating (ragweed; [11]): 25
Plant response rating, Ragweed (ragweed; [12]): 45
Plant response rating, Ragweed (ragweed; [13]): 15
Plant response rating (0 to 100), Wheat (wheat, winter; postemergence): 0
Wheat plant response rating (wheat, winter; [11]): 0
Plant response rating, Wheat (wheat, winter; [12]): 5
Plant response rating, Wheat (wheat, winter; [13]): 5
Plant response rating (0 to 100), Velvetleaf (velvetleaf [9]; postemergence): 35
Velvetleaf plant response rating (velvetleaf [9]; [11]): 60
Plant response rating, Velvetleaf (velvetleaf [9]; [12]): 75
Plant response rating, Velvetleaf (velvetleaf [9]; [13]): 65
Plant response rating (0 to 100), Soybean (soybean; postemergence): 30
Soybean plant response rating (soybean; [11]): 30
Plant response rating, Soybean (soybean; [12]): 80
Plant response rating, Soybean (soybean; [13]): 75
Crabgrass, Large plant response rating (large (Lg) crabgrass [10]): 50
Plant response rating, Crabgrass, Large (large (Lg) crabgrass [10]): 90
